Data as given in patent US4218453A, “N-Substituted hexahydro-6-canthinones for treating cardio-circulatory, cerebrovascular, and respiratory dysfunction” (priority 1976, dated 1980).

Experiments:
[1] = Acute toxicity, intragastric route, mice (LD50, Lichtfield and Wilcoxon); conditions: mouse, in vivo, po
Method: The compounds of the invention and vincamine also were administered by intragastric route to Charles River stock mice. The lethal doses for 50% (LD50) were determined graphically according to the method of Lichtfield and Wilcoxon (J. Pharmacol. Exp. Therap. […], 96, 99).

Charles River stock mice = assay: Hypobaric anoxia test on mice (survival time); assay type: in vivo; conditions: for activity relative to vincamine: comparison on the basis of fractions of LD50
Method: Charles River stock mice of the same sex, weighting about 20±2 g are shared into three lots of 10 animals each. The lots 1 and 2 comprise treated animals, i.e. those having received either a substance to be tested or vincamine, together with solvent, at 1 ml/100 g of body weight. The third lot comprises control animals i.e. those having only received solvent at 1 ml/100 g of body weight.
The compounds examined were administered by intragastric route 15 minutes before the experiment. The doses as applied correspond to 1/5, 1/10, 1/20 of the LD50 for the compounds of the invention and 1/5 of LD50 for vincamine.
The animals were placed in an atmosphere impoverished in oxygen by creating a partial vacuum (190 mm Hg, corresponding to 5.25% oxygen), in about 30 seconds.
The survival time of the mice was measured with a chronometer. Said time is increased by the agents capable of enhancing oxygenation of tissues and more particularly brain oxygenation.
The percentages of survival time increase with respect to the values obtained for the control animals are calculated.

CN1CCc2c3n(c4ccccc24)C(=O)CCC31 (stereo not drawn) [OC-330]
LD50 ([1]; mice): 310 mg/kg
Variation % (survival time increase vs control) (Charles River stock mice; Table II, 1st experiment, 60 mg/kg or LD50/5, intragastric 15 min before): 212%
Survival time (Charles River stock mice; Table II, 1st experiment, 60 mg/kg or LD50/5, intragastric 15 min before, control 39 (± 2)): 122 (± 4) sec.
Variation % (survival time increase vs control) (Charles River stock mice; Table II, 2nd experiment, 30 mg/kg or LD50/5 (so in the source)): 71%
Survival time (Charles River stock mice; Table II, 2nd experiment, 30 mg/kg or LD50/5 (so in the source), control 39 (± 3)): 67 (± 3) sec.
effect compared with vincamine at 1/5 LD50 (Charles River stock mice; at doses corresponding to 1/10 LD50 for mice (p.o.)): exerts an effect whose intensity is comparable to vincamine at 1/5 LD50
activity relative to vincamine (Charles River stock mice): about two times more active than vincamine

CCN1CCc2c3n(c4ccccc24)C(=O)CCC31 (stereo not drawn) [OC-331, 3-ethyl-1,2,3,3a,4,5-hexahydro-6-canthinone]
LD50 ([1]; mice): 411 mg/kg
Variation % (survival time increase vs control) (Charles River stock mice; Table III, 1st experiment, 80 mg/kg or LD50/5): 214%
Survival time (Charles River stock mice; Table III, 1st experiment, 80 mg/kg or LD50/5, control 39 (± 2)): 122 (± 1) sec.
Variation % (survival time increase vs control) (Charles River stock mice; Table III, 2nd experiment, 40 mg/kg or LD50/10): 105%
Survival time (Charles River stock mice; Table III, 2nd experiment, 40 mg/kg or LD50/10, control 39 (± 1)): 80 (± 3) sec.
Variation % (survival time increase vs control) (Charles River stock mice; Table III, 3rd experiment, 20 mg/kg or LD50/20): 75%
Survival time (Charles River stock mice; Table III, 3rd experiment, 20 mg/kg or LD50/20, control 39 (± 1)): 57 (± 4) sec.
effect compared with vincamine at 1/5 LD50 (Charles River stock mice; at doses corresponding to 1/20 LD50 for mice (p.o.)): exerts an effect comparable to vincamine at 1/5 LD50
activity relative to vincamine (Charles River stock mice): about four times more active than vincamine

CN1CCc2c3n(c4c(O)cccc24)C(=O)CCC31 (stereo not drawn) [OC-332]
LD50 [1]: 527 mg/kg
Variation % (survival time increase vs control) (Charles River stock mice; Table IV, 100 mg/kg or LD50/5): 117%
Survival time (Charles River stock mice; Table IV, 100 mg/kg or LD50/5, control 35 (± 3)): 76 (± 1) sec.
effect relative to vincamine (Charles River stock mice; at equally toxic dose): about 1.5 times higher

CC[C@]12CCCN3CCc4c(n(c5ccccc45)[C@@](O)(C(=O)OC)C1)[C@@H]32 [Vincamine, vincamine, reference compound]
LD50 ([1]; mice): 970 mg/kg
Variation % (survival time increase vs control) (Charles River stock mice; Table II, 1st experiment, vincamine 200 mg/kg, LD50/5): 67%
Survival time (Charles River stock mice; Table II, 1st experiment, vincamine 200 mg/kg, LD50/5, control 39 (± 2)): 65 (± 1) sec.
Variation % (survival time increase vs control) (Charles River stock mice; Table II, 2nd experiment, vincamine 200 mg/kg or LD50/5): 67%
Survival time (Charles River stock mice; Table II, 2nd experiment, vincamine 200 mg/kg or LD50/5, control 39 (± 3)): 65 (± 2) sec.
Variation % (survival time increase vs control) (Charles River stock mice; Table III, 1st experiment, vincamine 200 mg/kg or LD50/5): 67%
Survival time (Charles River stock mice; Table III, 1st experiment, vincamine 200 mg/kg or LD50/5, control 39 (± 2)): 65 (± 3) sec.
Variation % (survival time increase vs control) (Charles River stock mice; Table III, 2nd experiment, vincamine 200 mg/kg or LD50/5): 67%
Survival time (Charles River stock mice; Table III, 2nd experiment, vincamine 200 mg/kg or LD50/5, control 39 (± 1)): 65 (+ 1) sec.
Variation % (survival time increase vs control) (Charles River stock mice; Table III, 3rd experiment, vincamine 200 mg/kg or LD50/5): 59%
Survival time (Charles River stock mice; Table III, 3rd experiment, vincamine 200 mg/kg or LD50/5, control 39 (± 1)): 52 (± 1) sec.
Variation % (survival time increase vs control) (Charles River stock mice; Table IV, vincamine 200 mg/kg or LD50/5): 77%
Survival time (Charles River stock mice; Table IV, vincamine 200 mg/kg or LD50/5, control 35 (± 3)): 62 (± 4) sec.
